The values that follow come from patent US11426397B2, “Piperidinyl- and piperazinyl-substituted heteroaromatic carboxamides as modulators of GPR6” (TAKEDA PHARMACEUTICAL COMPANY LIMITED, priority 2017, dated 2022).

Series [1] has as its target T1, GPR6 receptor expressed in CHO-K1 cells (Homo sapiens, UniProt P46095).
T1 construct: expressed in transfected cells
Nature of the series: In vitro inhibition of cAMP (EC50), cell-based HTRF cAMP assay. Particulars: inhibition of constitutive cAMP activity of GPR6 in CHO-K1 cells. Put shortly:
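Tetracycline-inducible CHO-K1 line, GPR6 expression induced 20 h with 2 μg/mL doxycycline. Compounds incubated 45 min at 37 °C in Ringer's buffer (pH 7.4) with 0.5% fatty acid free BSA and 300 μM IBMX. Constitutive cAMP read by Lance HTRF; EC50 from four-parameter logistic fit.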

Series [2] concerns haloperidol-induced catalepsy. Nature of the series: In vivo Parkinson's disease model, haloperidol-induced catalepsy. On the set-up: species or system mice. Particulars: mouse catalepsy model, PO. The text has this: II. In Vivo Parkinson's Disease Model Haloperidol-Induced Catalepsy The motor symptoms of Parkinson's disease include akinesia, bradykinesia, rigidity, tremor and postural abnormalities and are associated with the loss of nigral dopaminergic cells and a decline in striatal dopamine levels. Administration of haloperidol to rodents leads to a transient Parkinsonian-like state that is reversed by the administration of levodopa and other drugs that have been clinically validated for the treatment of Parkinson's disease. See Duty, S. & Jenner, P. Br. J. Pharmacol. 164:1357-1391 (2011). Haloperidol antagonizes dopamine D2, and to a lesser extent, D1 receptors in medium spiny neurons that comprise the indirect and direct pathways of the motor circuit, respectively. The resultant block of striatal dopamine transmission results in abnormal downstream firing within the basal ganglia circuits that is manifest as symptoms of muscle rigidity and catalepsy. Catalepsy has been postulated to reflect the clinical features of Parkinson's disease, whereby patients experience an inability to initiate movements. Male C57B16 mice weighing 25-35 g are used. Catalepsy is induced by the subcutaneous (sc) administration of the dopamine receptor antagonist haloperidol (0.45 mg/kg) at least 30 minutes before testing the animals on a vertical grid test. For this test, the rats or mice are placed on a wire mesh cover of a 25 cm×43 cm plexiglass cage placed at an angle of about 70 degrees with the bench table. The subject is placed on the grid with all four legs abducted and extended (“frog posture”). The use of such an unnatural posture is essential for the specificity of this test for catalepsy. The time span from placement of the paws until the first complete removal of one paw (descent latency) is measured maximally for 120 seconds for rats. For mice, the front paws of the mouse is placed on a horizontal metal bar raised 2″ above a Plexiglas platform and time is recorded for up to 30 seconds per trial. The test ends when the animal's front paws return to the platform or after 30 seconds. The test is repeated three times and the average of the three trials is reported as the intensity index of catalepsy. Animals evaluated at 30 minutes after dosing are reevaluated at 60 or 90 minutes post dosing of haloperidol. Efficacy of GPR6 modulators to reverse haloperidol induced catalepsy is measured 30 minutes, 60 minutes, and/or 90 minutes after dosing the subjects with 0.45 mg/kg ip (intraperitoneal injection) of haloperidol along with the GPR6 modulator test compound. A representative number of compounds of Formula 1 are administered in a dose range from 0.1 to 100 mg/kg (po in 0.5% methyl cellulose) in conjunction with haloperidol. […]

T1 sequence (P46095 whole entry): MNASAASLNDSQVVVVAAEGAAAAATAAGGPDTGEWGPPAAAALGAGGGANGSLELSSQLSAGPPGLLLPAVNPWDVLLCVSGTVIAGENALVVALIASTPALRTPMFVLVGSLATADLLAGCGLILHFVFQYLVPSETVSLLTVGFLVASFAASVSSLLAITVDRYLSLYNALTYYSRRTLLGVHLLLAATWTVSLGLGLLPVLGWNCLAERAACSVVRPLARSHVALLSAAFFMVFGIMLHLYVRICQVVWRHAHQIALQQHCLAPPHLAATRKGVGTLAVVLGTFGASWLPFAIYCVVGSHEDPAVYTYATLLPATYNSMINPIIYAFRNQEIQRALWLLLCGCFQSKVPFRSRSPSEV

One may read the melting point as the temperature of the solid-liquid transition. In turn, `COc1ccccc1C(=O)Nc1cc(S(C)(=O)=O)ccc1N1CCC(Oc2ccc(F)cc2F)CC1` [Example 6, N-(2-(4-(2,4-difluorophenoxy)piperidin-1-yl)-5-(methylsulfonyl)phenyl)-2-methoxybenzamide] gave a melting point of 201 °C. Also, the “pEC50, in vitro inhibition of cAMP” value in series [1] was found to be 7.3.

In turn, `COc1cc(N2CCC(Oc3ccc(F)cc3F)CC2)c(NC(=O)c2cccnc2OC)cn1` [Example 20, N-(4-(4-(2,4-difluorophenoxy)piperidin-1-yl)-6-methoxypyridin-3-yl)-2-methoxynicotinamide] had a melting point of 138 °C. The “pEC50, in vitro inhibition of cAMP” value in series [1] stood at 6.9.

As to `COc1ccncc1C(=O)Nc1cc(S(C)(=O)=O)ccc1N1CCC(Oc2ccc(F)cc2F)CC1` [Example 7, N-(2-(4-(2,4-difluorophenoxy)piperidin-1-yl)-5-(methylsulfonyl)phenyl)-4-methoxynicotinamide], the melting point is 173 °C. For the same molecule, the “pEC50, in vitro inhibition of cAMP” value in series [1] is 7.4.

On to `COc1ncccc1C(=O)Nc1cnc(C)nc1N1CCC(Oc2ccc(F)cc2F)CC1` [Example 18, N-(4-(4-(2,4-difluorophenoxy)piperidin-1-yl)-2-methylpyrimidin-5-yl)-2-methoxynicotinamide], for which the “pEC50, in vitro inhibition of cAMP” value in series [1] came to 6.8. Further, the “% reversal” value in series [2] (dose 1 mpk, time 30 minutes) amounted to 53%; in series [2] (dose 1 mpk, time 90 minutes), 37%.

Take `COc1nc(C)ccc1C(=O)Nc1cnc(C(=O)N(C)C)cc1N1CCC(Oc2ccc(F)cc2F)CC1` [Example 283, 4-(4-(2,4-difluorophenoxy)piperidin-1-yl)-5-(2-methoxy-6-methylnicotinamido)-N,N-dimethylpicolinamide]: the “pEC50, in vitro inhibition of cAMP” value in series [1] turned out to be 6.8. The “% reversal” value in series [2] (dose 3 mpk, time 60 minutes) was found to be 47%.

As for `COc1ncccc1C(=O)Nc1cnc(C(=O)N(C)C)cc1N1CCC(Oc2ccc(F)cc2F)CC1` [Example 31, 4-(4-(2,4-difluorophenoxy)piperidin-1-yl)-5-(2-methoxynicotinamido)-N,N-dimethylpicolinamide], the “pEC50, in vitro inhibition of cAMP” value in series [1] stood at 7.1. For the same molecule, in series [2] (dose 1 mpk, time 60 minutes), the “% reversal” value turned out to be 47%.
